Patent US20080221214A1, “Process for the preparation of "Urchym" a urease and alpha-chymotrypsin enzyme inhibitory drug” (priority 2006, published 2008)

Tests used:
Jack bean urease = target: T1, Jack bean urease (Canavalia ensiformis, UniProt P07374); assay: biochemical
T1 construct: purchased Sigma-Aldrich
Method: Reaction mixtures comprising a 25 μL solution of enzyme (Jack bean urease, Sigma-Aldrich, specific activity 15 EU/mg) and 55 μL of buffer (0.01 M K2HPO43H2O, 1 MM EDTA 0.01 M LiCl; pH 8.2) containing 100 mM urea were incubated with 5 μL of the test compounds (0.01 μM-1 mM, dissolved in DMSO) at 30° C. for 15 min in 96-well plates. Urease activity was determined by measuring ammonia production using the indophenol method, 45 μL, of phenol reagent (1% w/v phenol and 0.005% w/v sodium nitroprusside) and 70 μL of alkali reagent (0.5% w/v NaOH and 0.1% w/v NaOCI) were added to each well (the final reaction volume was 200 μL). The increasing absorbance at 630 nm was measured after 50 min using a microplate reader (Molecular Device). All reactions were performed in triplicate. The results (change in absorbance per min) were processed using SoftMax Pro software (Molecular Device). Percent inhibitions were calculated using the formula 100−(ODtest well/ODcontrol×100).

α-chymotrypsin = target: T2, α-chymotrypsin (Bos taurus, UniProt P00766); assay: α-Chymotrypsin assay and inhibition; type: biochemical; conditions: substrate N-succinyl-phenylalanine-p-nitroanilide, pH 7.6, 37° C., 30 min pre-incubation; read-out: IC50 value, α-chymotrypsin inhibitory activity
T2 construct: purchased Sigma-Aldrich
Method: For the determination of α-chymotrypsin inhibitory activity the literature protocol was followed. In brief α-chymotrypsin (9 units/mL in 50 mM Tris-HCl buffer, pH 7.6; Sigma-Aldrich) was pre-incubated with the compound (3.02×10^−5 g/100 μL) for 30 min at 37° C. and then 100 μL of substrate solution (N-succinyl-phenylalanine-p-nitroanilide; 1 mg/mL) in 50 mM Tris-HCl buffer, pH 7.6) was added to start the enzyme reaction. The absorbance of released p-nitroaniline was continuously monitored at 410 nm until a significant color change had achieved. All reactions were performed in triplicate. Percent inhibitions were calculated using the formula 100-(ODtest well/ODcontrol×100).

T1 sequence (P07374 whole entry, looked up): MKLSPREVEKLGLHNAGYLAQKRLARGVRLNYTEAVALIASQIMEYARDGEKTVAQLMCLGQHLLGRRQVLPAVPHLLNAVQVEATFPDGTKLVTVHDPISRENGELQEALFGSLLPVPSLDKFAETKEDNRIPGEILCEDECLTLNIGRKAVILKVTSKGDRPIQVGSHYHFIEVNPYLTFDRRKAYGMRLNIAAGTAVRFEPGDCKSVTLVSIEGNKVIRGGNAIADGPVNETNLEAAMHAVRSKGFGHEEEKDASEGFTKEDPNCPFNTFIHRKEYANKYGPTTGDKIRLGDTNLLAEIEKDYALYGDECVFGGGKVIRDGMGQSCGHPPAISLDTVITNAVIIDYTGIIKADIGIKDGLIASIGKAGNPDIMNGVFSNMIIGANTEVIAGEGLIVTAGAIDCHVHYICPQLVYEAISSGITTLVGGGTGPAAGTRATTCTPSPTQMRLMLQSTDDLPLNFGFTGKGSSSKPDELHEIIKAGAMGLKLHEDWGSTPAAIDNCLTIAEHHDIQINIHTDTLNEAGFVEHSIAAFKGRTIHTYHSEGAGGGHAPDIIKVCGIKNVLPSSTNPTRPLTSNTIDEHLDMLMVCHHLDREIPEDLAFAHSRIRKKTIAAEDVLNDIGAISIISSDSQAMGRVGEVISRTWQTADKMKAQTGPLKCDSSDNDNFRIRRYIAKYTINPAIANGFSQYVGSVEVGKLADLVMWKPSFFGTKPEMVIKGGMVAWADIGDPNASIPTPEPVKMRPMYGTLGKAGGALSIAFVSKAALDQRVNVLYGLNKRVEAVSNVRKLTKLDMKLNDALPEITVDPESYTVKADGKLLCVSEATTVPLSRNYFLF

Which IC50 (Jack bean urease) does the source give for `O=C(Nc1ccc([N+](=O)[O-])cc1)Nc1ccc([N+](=O)[O-])cc1` [Urchym, N-4-nitrophenyl-N′-4′-nitrophenylurea] here?
Its IC50 is 1250 nM.

And the IC50 (α-chymotrypsin)?
The IC50 was 3.15 ± 0.14 µM.
